Patent publication EP4548976A1, “ANTIVIRAL COMPOUNDS AND COMPOSITIONS THEREFROM” (Consejo Superior De Investigaciones Científicas, priority 2023, dated 2025)

Tests used:
[1] = in vitro; conditions: human
[2] = tested on: SARS-CoV-2 stock strain NL/2020; experiment: Antiviral activity in A549-ACE2 cells using viral antigen quantitation (SARS-CoV-2 N protein immunofluorescence); assay type: cell-based; conditions: Severe acute respiratory syndrome coronavirus 2, MOI 0.005, 48 h; for EC50: concentration reducing SARS-CoV-2 infection efficiency by 50% vs vehicle; for EC90: concentration reducing SARS-CoV-2 infection efficiency by 90% vs vehicle

For `COC(=O)c1cc(-c2ccnn2C2CCCCO2)ccc1NC(C#N)[C@H](Cc1c[nH]c2ccccc12)NC(=O)OC(C)(C)C` (mixture of isomers) [Example 23, Methyl 2-(((1RS,2S)-2-((tert-butoxycarbonyl)amino)-1-cyano-3-(1H-indol-3-yl)propyl)amino)-5-(1-(tetrahydro-2H-pyran-2-yl)-1H-pyrazol-5-yl)benzoate], which CC50 [1] is on record?
Its CC50 is 50 µM.

What about the EC50 [2] of the same molecule?
Its EC50 is 4000 nM.

What about the EC90 [2] of the same molecule?
Its EC90 is 8 µM.

For `COC(=O)c1cc(C2=CCCCC2)ccc1NC(C#N)[C@H](Cc1c[nH]c2ccccc12)NC(=O)OC(C)(C)C` (mixture of isomers) [Example 22, Methyl 4-(((1RS,2S)-2-((tert-butoxycarbonyl)amino)-1-cyano-3-(1H-indol-3-yl)propyl)amino)-2',3',4',5'-tetrahydro-[1,1'-biphenyl]-3-carboxylate], which CC50 [1] is on record?
The CC50 was 32 µM.

What about the EC50 [2] of the same molecule?
The EC50 was 6000 nM.

What about the EC90 [2] of the same molecule?
The EC90 was 9 µM.

For `COC(=O)c1cc(-c2ccc3[nH]ncc3c2)ccc1NC(C#N)[C@H](Cc1c[nH]c2ccccc12)NC(=O)OC(C)(C)C` (mixture of isomers) [Example 16, Methyl 2-(((1RS,2S)-2-((tert-butoxycarbonyl)amino)-1-cyano-3-(1H-indol-3-yl)propyl)amino)-5-(1H-indazol-5-yl)benzoate], which CC50 [1] is on record?
Its CC50 is 10 µM.

And the EC50 [2]?
Its EC50 is 6000 nM.

And the EC90 [2]?
Its EC90 is 9 µM.

With `COC(=O)c1cc(-c2cc3ccccc3o2)ccc1NC(C#N)[C@H](Cc1c[nH]c2ccccc12)NC(=O)OC(C)(C)C` (mixture of isomers) [Example 12, Methyl 5-(benzofuran-2-yl)-2-(((1RS,2S)-2-((tert-butoxycarbonyl)amino)-1-cyano-3-(1H-indol-3-yl)propyl)amino)benzoate] as the molecule, how does the CC50 [1] read?
The CC50 was over 50 µM.

What about the EC50 [2] of the same molecule?
Its EC50 is 1850 nM.

And the EC90 [2]?
Its EC90 is 5 µM.

For `COC(=O)c1cc(-c2ccc(CN3CCOCC3)cc2)ccc1NC(C#N)[C@H](Cc1c[nH]c2ccccc12)NC(=O)OC(C)(C)C` (mixture of isomers) [Example 10, Methyl 4-(((1RS,2S)-2-((tert-butoxycarbonyl)amino)-1-cyano-3-(1H-indol-3-yl)propyl)amino)-4'-(morpholinomethyl)-[1,1'-biphenyl]-3-carboxylate], which CC50 [1] is on record?
Its CC50 is over 50 µM.

What about the EC50 [2] of the same molecule?
Its EC50 is 900 nM.

What about the EC90 [2] of the same molecule?
Its EC90 is 2 µM.

With `COC(=O)c1cc(-c2ccc(N3CCOCC3)cc2)ccc1NC(C#N)[C@H](Cc1c[nH]c2ccc(-c3ccccc3)cc12)NC(=O)OC(C)(C)C` (mixture of isomers) [Example 5, Methyl 4-(((1RS,2S)-2-((tert-butoxycarbonyl)amino)-1-cyano-3-(5-phenyl-1H-indol-3-yl)propyl)amino)-4'-morpholino-[1,1'-biphenyl]-3-carboxylate] as the molecule, how does the CC50 [1] read?
The CC50 was over 50 µM.

What about the EC50 [2] of the same molecule?
Its EC50 is 4000 nM.

And the EC90 [2]?
Its EC90 is 13 µM.

What does the source list for `COC(=O)c1cc(-c2ccc(N3CCOCC3)cc2)ccc1NC(C#N)[C@H](Cc1c[nH]c2cccc(-c3ccc(-c4cn(CCCOCCOCCOCCNC(=O)CCC[C@H]5SC[C@H]6NC(=O)N[C@H]65)nn4)cc3)c12)NC(=O)OC(C)(C)C` (mixture of isomers) [Example 20, Methyl 4-(((1RS,2S)-2-((tert-butoxycarbonyl)amino)-1-cyano-3-(4-(4-(1-(14-oxo-17-((3aR,4R,6aS)-2-oxohexahydro-1H-thieno[3,4-d]imidazol-4-yl)-4,7,10-trioxa-13-azaheptadecyl)-1H-1,2,3-triazol-4-yl)phenyl)-1H-indol-3-yl)propyl)amino)-4'-morpholino-[1,1'-biphenyl]-3-carboxylate]?
CC50 [1]: > 50 µM; EC50 [2]: 2000 nM; EC90 [2]: 50 µM

Which CC50 [1] does the source give for `COC(=O)c1cc(-c2ccc(N3CCOCC3)cc2)ccc1NC(C#N)[C@H](Cc1c[nH]c2cc(Br)ccc12)NC(=O)OC(C)(C)C` (mixture of isomers) [Example 2, Methyl 4-(((1RS,2S)-3-(6-bromo-1H-indol-3-yl)-2-((tert-butoxycarbonyl)amino)-1-cyanopropyl)amino)-4'-morpholino-[1,1'-biphenyl]-3-carboxylate] here?
Its CC50 is over 50 µM.

What about the EC50 [2] of the same molecule?
The EC50 was 1600 nM.

What about the EC90 [2] of the same molecule?
The EC90 was 6 µM.

Which results are given for `COC(=O)c1cc(-c2ccc(N3CCOCC3)cc2)ccc1NC(C#N)[C@H](Cc1c[nH]c2cccc(Br)c12)NC(=O)OC(C)(C)C` (mixture of isomers) [Example 4, Methyl 4-(((1RS,2S)-3-(4-bromo-1H-indol-3-yl)-2-((tert-butoxycarbonyl)amino)-1-cyanopropyl)amino)-4'-morpholino-[1,1'-biphenyl]-3-carboxylate]?
CC50 [1]: > 50 µM; EC50 [2]: 2000 nM; EC90 [2]: 7.5 µM
